Test results: patent US20230355759A1, “POPULATIONS OF NATURAL KILLER CELLS COMPRISING A CLEAVAGE RESISTANT CD16” (CELULARITY INC., priority 2019, published 2023)

Tests used:
[1] = test system: CD34+ cells; test: NK cell expansion in three-stage NK culture with compound; format: cell-based, human; settings: for NK cell expansion compared to SR1: compound and SR1 at 10 μM, Day 35; for support of NK (PNK-007) expansion: compound at 10 μM during the first 14 days, 35-day culture; for expansion, differentiation and cytotoxicity profiles compared to SR1: PNK-007 culture
Excerpt: (§1) UCB CD34+ cells were cultivated in presence of cytokines including thrombopoietin, SCF, Flt3 ligand, IL-7, IL-15 and IL-2 for 35 days to produce three-stage NK cells, as described in Example 1. Multi-color flow cytometry was used to determine the phenotypic characteristics of three-stage NK cells.
(§2) For biological testing, the compounds were provided to culture to evaluate their effects on NK cell expansion and differentiation. Specifically, donors of CD34^+ cells (StemCell Technology) were thawed and expanded in vitro following NK culture protocol. During the first 14 days of the culture, each CRL compounds was dissolved in DMSO and added to the culture at 10 μM concentration. SR1 (at 10 μM) served as a positive control compound, while DMSO alone without any compound served as a negative control. At the end of the culture on Day 35, cell expansion, natural killer (NK) cell differentiation and cytotoxicity of the cells against K562 tumor cell line were characterized. Due to the large number of the compounds, the testing was performed in two experiments, CRL1-11 and CRL 12-22. The same donors were used for each experiment. Positive and negative controls were also included in both experiments.

[2] = test system: K562 tumor cells; test: Cytotoxicity assay of compound cultured cells against K562; format: cell-based; settings: K562, 10:1 effector to target ratio
Method: as §2
Cytotoxicity assay was run using compound cultured cells against K562 tumor cells at 10:1 effector to target ratio (FIG. 5) to evaluate cell functions.

[3] = test system: CD34+ cells; test: NK cell differentiation of compound cultured cells (flow cytometry); format: cell-based, human; settings: PNK-007 culture
Excerpt: as §1, §2

[4] = test system: CD34 cells; test: CD34 cell expansion at Day 14 of the culture; format: cell-based, human; settings: compound at 10 μM
Method: as §2

Compound | NK cell expansion compared to SR1 [1] | killing activities compared to cells cultured with SR1 [2] | CD56+/CD11a+ subpopulation compared to SR1 [3] | support of NK (PNK-007) expansion [1] | expansion, differentiation and cytotoxicity profiles compared to SR1 [1] | CD34 cell expansion [4]
CC(C)c1csc2c(NCCc3c[nH]c4ccccc34)nc(-c3cncc(C#N)c3)nc12 [CRL17, 5-(4-((2-(1H-indol-3-yl)ethyl)amino)-7-isopropylthieno[3,2-d]pyrimidin-2-yl)nicotinonitrile] | slightly less expansion compared to SR1 | increased killing activities of the cells | increased CD56+/CD11a+ subpopulation |  |  | 
CC(C)c1csc2c(NCCc3c[nH]c4ccccc34)nc(-c3cncc(F)c3)nc12 [CRL18, N-(2-(1H-indol-3-yl)ethyl)-2-(5-fluoropyridin-3-yl)-7-isopropylthieno[3,2-d]pyrimidin-4-amine] | slightly less expansion compared to SR1 | increased killing activities of the cells | increased CD56+/CD11a+ subpopulation |  |  | 
CCC(C)Nc1cc(-c2cncc(C#N)c2)nc(NCCc2c[nH]c3ccccc23)n1 (centres unmarked) [CRL7, 5-(2-((2-(1H-indol-3-yl)ethyl)amino)-6-(sec-butylamino)pyrimidin-4-yl)nicotinonitrile] |  |  |  | all the compounds except CRL7 and CRL13 supported PNK-007 expansion and differentiation |  | 
CCC(C)Nc1nc(NCCc2c[nH]c3ccccc23)c2ccccc2n1 (centres unmarked) [CRL13, N^4-(2-(1H-indol-3-yl)ethyl)-N^2-(sec-butyl)quinazoline-2,4-diamine] |  |  |  | all the compounds except CRL7 and CRL13 supported PNK-007 expansion and differentiation |  | 
N#Cc1cncc(-c2nc(NCCc3c[nH]c4ccccc34)c3occc3n2)c1 [CRL22, 5-(4-((2-(1H-indol-3-yl)ethyl)amino)furo[3,2-d]pyrimidin-2-yl)nicotinonitrile] |  |  |  | supported cell expansion the best | very similar expansion, differentiation and cytotoxicity profiles as SR1 | highest CD34 cell expansion
Cc1cncc(-c2nc(NCCc3c[nH]c4ccccc34)c3scc(C(C)C)c3n2)c1 [CRL21, N-(2-(1H-indol-3-yl)ethyl)-7-isopropyl-2-(5-methylpyridin-3-yl)thieno[3,2-d]pyrimidin-4-amine] | slightly less expansion compared to SR1 | increased killing activities of the cells | increased CD56+/CD11a+ subpopulation |  |  | 
Cc1cncc(-c2nc(NCCc3c[nH]c4ccccc34)c3occc3n2)c1 [CRL20, N-(2-(1H-indol-3-yl)ethyl)-2-(5-methylpyridin-3-yl)furo[3,2-d]pyrimidin-4-amine] |  |  |  | supported cell expansion the best | very similar expansion, differentiation and cytotoxicity profiles as SR1 | highest CD34 cell expansion
Fc1cncc(-c2nc(NCCc3c[nH]c4ccccc34)c3occc3n2)c1 [CRL19, N-(2-(1H-indol-3-yl)ethyl)-2-(5-fluoropyridin-3-yl)furo[3,2-d]pyrimidin-4-amine] |  |  |  | supported cell expansion the best | very similar expansion, differentiation and cytotoxicity profiles as SR1 | highest CD34 cell expansion
